Laboratory results as given in US20220204510A1, “2,3-DIHYDRO-1H-PYRROLIZINE-7-FORMAMIDE DERIVATIVE AND APPLICATION THEREOF” (CHIA TAI TIANQING PHARMACEUTICAL GROUP CO., LTD., priority 2018, published 2022).

Assays:
CYP1A2 = biological target: T1, CYP1A2 (Homo sapiens, UniProt P05177); experiment: Inhibition of human liver microsomal cytochrome P450 isoenzymes; type: in vitro ADME; conditions: human liver microsomes
T1 construct: from tissue; host or cells: human liver microsomes
T1 sequence (P05177 1-516): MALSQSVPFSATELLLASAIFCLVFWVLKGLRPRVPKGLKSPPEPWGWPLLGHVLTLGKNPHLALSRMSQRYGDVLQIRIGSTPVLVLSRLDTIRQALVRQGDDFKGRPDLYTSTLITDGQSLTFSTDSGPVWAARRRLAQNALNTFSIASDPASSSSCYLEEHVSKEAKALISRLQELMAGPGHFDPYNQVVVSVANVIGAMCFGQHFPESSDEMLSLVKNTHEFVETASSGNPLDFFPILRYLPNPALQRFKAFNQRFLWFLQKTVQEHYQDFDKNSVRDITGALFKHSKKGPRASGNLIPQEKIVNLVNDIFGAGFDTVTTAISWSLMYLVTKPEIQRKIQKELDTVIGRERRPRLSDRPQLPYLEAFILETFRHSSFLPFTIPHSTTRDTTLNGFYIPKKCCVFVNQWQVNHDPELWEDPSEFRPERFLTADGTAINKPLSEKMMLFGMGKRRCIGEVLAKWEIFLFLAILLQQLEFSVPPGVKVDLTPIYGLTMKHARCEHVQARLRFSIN
Procedure: (§1) Experimental objective: to determine the inhibitory effect of the test compound on the activity of human liver microsomal cytochrome P450 isoenzymes (CYP1A2, CYP2C9, CYP2C19, CYP2D6 and CYP3A4). Experimental procedures: first, the test compound (10 mM) was diluted in gradient to prepare working solutions (100× final concentration) at concentrations of: 5, 1.5, 0.5, 0.15, 0.05, 0.015, and 0.005 mM, and working solutions of positive inhibitors for P450 isoenzymes (CYP1A2, CYP2C9, CYP2C19, CYP2D6, and CYP3A4) and the specific substrate mixtures thereof (5 in 1) were prepared simultaneously; human liver microsomes frozen in a−80° C. refrigerator were thawed on ice, and after all thawed, the human liver microsomes were diluted with PB to prepare a working solution at a specific concentration (0.253 mg/mL); 20 μL of the substrate mixture (20 μL of PB was added into the blank well) and 158 μL of the working solution of human liver microsomes were added into the reaction plate which was then placed on ice for use; then 2 μL of the test compound at each concentration (N=1) and a specific inhibitor (N=2) were added into the corresponding well, and the group without the inhibitor (test compound or the positive inhibitor) was added with a corresponding organic solvent as a control sample (the test compound control sample was 1:1 DMSO:MeOH; the positive control sample was 1:9 DMSO:MeOH); after pre-incubation under a 37° C. water bath for 10 min, 20 μL of a coenzyme factor (NADPH) solution was added into the reaction plate and incubated under a 37° C. water bath for 10 min, 400 μL of a cold acetonitrile solution (the internal standard was 200 ng/mL Tolbutamide and Labetalol) was added to terminate the reaction, and the reaction plate was placed on a shaker and shaken for 10 min; after centrifugation at 4,000 rpm for 20 min, 200 μL of the supernatant was collected and added to 100 μL of water to dilute the sample, and, finally, the plate was sealed, oscillated shaken evenly, and subjected to LC/MS/MS detection.

CYP2C19 = biological target: T2, CYP2C19 (Homo sapiens, UniProt P33261); experiment: as above; type: in vitro ADME; conditions: human liver microsomes
T2 construct: from tissue; host or cells: human liver microsomes
T2 sequence (P33261 whole entry): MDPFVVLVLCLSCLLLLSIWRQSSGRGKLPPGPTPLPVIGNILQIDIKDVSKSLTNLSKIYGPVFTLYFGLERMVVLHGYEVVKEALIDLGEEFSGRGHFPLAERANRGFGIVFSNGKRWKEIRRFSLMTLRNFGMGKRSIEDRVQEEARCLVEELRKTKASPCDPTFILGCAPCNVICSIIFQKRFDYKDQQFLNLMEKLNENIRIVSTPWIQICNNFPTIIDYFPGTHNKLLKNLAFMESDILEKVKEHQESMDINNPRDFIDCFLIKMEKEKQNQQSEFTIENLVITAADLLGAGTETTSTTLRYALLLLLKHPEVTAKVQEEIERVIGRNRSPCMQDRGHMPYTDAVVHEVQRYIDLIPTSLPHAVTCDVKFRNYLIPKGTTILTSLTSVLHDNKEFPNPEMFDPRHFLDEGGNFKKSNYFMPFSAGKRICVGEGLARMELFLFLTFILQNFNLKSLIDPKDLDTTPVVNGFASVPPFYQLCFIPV
Procedure: as §1

CYP2C9 = biological target: T3, CYP2C9 (Homo sapiens, UniProt P11712); experiment: as above; type: in vitro ADME; conditions: human liver microsomes
T3 construct: from tissue; host or cells: human liver microsomes
T3 sequence (P11712 whole entry): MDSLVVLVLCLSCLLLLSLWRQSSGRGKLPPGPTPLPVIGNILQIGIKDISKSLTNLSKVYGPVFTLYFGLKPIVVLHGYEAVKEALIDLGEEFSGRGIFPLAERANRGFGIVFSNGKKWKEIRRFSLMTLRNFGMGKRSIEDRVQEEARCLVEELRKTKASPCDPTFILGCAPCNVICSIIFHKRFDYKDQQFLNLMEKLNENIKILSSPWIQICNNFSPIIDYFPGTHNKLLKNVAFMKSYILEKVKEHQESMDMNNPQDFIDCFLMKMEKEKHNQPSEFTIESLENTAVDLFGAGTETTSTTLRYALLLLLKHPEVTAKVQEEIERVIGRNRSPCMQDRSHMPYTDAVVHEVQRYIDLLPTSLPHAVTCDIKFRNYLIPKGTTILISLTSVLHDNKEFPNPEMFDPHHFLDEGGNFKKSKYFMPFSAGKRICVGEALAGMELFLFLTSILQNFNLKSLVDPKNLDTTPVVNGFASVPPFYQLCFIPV
Procedure: as §1

CYP2D6 = biological target: T4, CYP2D6 (Homo sapiens, UniProt P10635); experiment: as above; type: in vitro ADME; conditions: human liver microsomes
T4 construct: from tissue; host or cells: human liver microsomes
T4 sequence (P10635 whole entry): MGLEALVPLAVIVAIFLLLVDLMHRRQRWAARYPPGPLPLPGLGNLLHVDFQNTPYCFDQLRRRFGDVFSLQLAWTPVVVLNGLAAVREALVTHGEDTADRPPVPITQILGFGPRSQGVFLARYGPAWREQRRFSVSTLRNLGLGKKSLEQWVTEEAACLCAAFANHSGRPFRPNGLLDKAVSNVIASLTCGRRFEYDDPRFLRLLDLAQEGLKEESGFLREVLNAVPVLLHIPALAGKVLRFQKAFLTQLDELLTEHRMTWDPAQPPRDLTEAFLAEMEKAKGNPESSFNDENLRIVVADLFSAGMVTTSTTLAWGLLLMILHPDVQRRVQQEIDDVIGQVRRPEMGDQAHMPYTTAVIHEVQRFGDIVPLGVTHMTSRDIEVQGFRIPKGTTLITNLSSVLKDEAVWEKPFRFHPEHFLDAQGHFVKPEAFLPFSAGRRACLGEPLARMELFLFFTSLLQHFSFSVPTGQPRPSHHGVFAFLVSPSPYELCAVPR
Procedure: as §1

CYP3A4 = biological target: T5, CYP3A4 (Homo sapiens, UniProt P08684); experiment: as above; type: in vitro ADME; conditions: human liver microsomes
T5 construct: from tissue; host or cells: human liver microsomes
T5 sequence (P08684 whole entry): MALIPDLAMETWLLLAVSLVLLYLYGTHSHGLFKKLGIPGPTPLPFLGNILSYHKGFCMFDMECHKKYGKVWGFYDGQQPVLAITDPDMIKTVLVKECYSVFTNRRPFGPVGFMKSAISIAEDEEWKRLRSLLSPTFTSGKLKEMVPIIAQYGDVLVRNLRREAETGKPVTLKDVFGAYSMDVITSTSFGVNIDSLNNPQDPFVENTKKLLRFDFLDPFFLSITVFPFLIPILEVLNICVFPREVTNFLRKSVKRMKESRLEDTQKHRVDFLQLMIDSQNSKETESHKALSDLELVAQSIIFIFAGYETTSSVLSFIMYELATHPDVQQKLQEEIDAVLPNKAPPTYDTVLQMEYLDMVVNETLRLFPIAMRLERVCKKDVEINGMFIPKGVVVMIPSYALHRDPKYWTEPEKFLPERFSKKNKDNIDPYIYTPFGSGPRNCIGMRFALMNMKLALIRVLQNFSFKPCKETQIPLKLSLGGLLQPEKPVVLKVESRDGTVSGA
Procedure: as §1

[1] = Metabolic stability in liver microsomes; type: in vitro ADME, human; conditions: for half-life at 1 μM: Human liver microsomes, 1 μM compound, 0.5 mg/mL; for CLint scaled at 1 μM / microsomal CLint at 1 μM: human liver microsomes; for microsomal CLint at 1 μM: read-out: CLint(mic)
Procedure: Experimental objective: to evaluate the metabolic stability of the test compound in CD-1 mice and human liver microsomes
Experimental procedures: first, the test compound (10 mM) was subjected to a two-step dilution, where the compound was diluted to an intermediate concentration of 100 μM with 100% methanol, and the working solution was diluted to 10 μM with a potassium phosphate buffer; eight 96-well incubation plates were prepared, and named T0, T5, T10, T20, T30, T60, Blank and NCF60, respectively; the reaction time points corresponding to the first 6 incubation plates were 0, 5, 10, 20, 30 and 60 min, respectively; for the Blank plate, neither the test compound nor a control compound was added, and for the NCF60 plate, potassium phosphate buffer was used in an incubation of 60 min in place of a NADPH regeneration system solution; 10 μL of the test compound working solution and 80 μL of the microsome working solution (liver microsome protein concentration was 0.625 mg/mL) were added to the T0, T5, T10, T20, T30, T60 and NCF60 plates, while only the microsome working solution was added to the Blank plate, and all the incubation plates were then placed in a 37° C. water bath for pre-incubation for about 10 min; after the pre-incubation, 10 μL of a NADPH regeneration system working solution was added into each sample well of all the plates except the NCF60 plate and T0 plate to start the reaction, and 10 μL of potassium phosphate buffer was added to each well of the NCF60 plate; therefore, in the test compound or control compound samples, the final reaction concentrations of the compound, testosterone, diclofenac and propafenone were 1 μM, the concentration of the liver microsomes was 0.5 mg/mL, and the final concentrations of DMSO and acetonitrile in the reaction system were 0.01% (v/v) and 0.99% (v/v), respectively; after incubation for an appropriate time (such as 5, 10, 20, 30, and 60 min), 300 μL of a stop solution (acetonitrile solution containing 100 ng/mL tolbutamide and 100 ng/mL labetalol) was added to each sample well to stop the reaction; 300 μL of the stop solution and then 10 μL of the NADPH working solution were added to the T0 plate, all the sample plates were shaken and centrifuged in a centrifuge (3220×g) for 20 min, and then 100 μL of supernatant was taken from each well and diluted with 300 μL of pure water for liquid chromatography-tandem mass spectrometry analysis.

Row | SMILES | IC50 (CYP1A2) | IC50 (CYP2C19) | IC50 (CYP2C9) | IC50 (CYP2D6) | IC50 (CYP3A4) | half-life at 1 μM [1] | CLint scaled at 1 μM [1] | microsomal CLint at 1 μM [1]
1 | C[C@]1(NC(=O)C(=O)c2c(Cl)c(C(=O)Nc3ccc(F)c(F)c3)c3n2CCC3)CC[C@H](CC(=O)O)CC1 [Compound 18] | > 50 µM | > 50 µM | > 50 µM | > 50 µM | > 50 µM | > 2.42 h | < 8.6 mL/min/kg | < 9.6 µL/min/mg
2 | C[C@]1(NC(=O)C(=O)c2c(Cl)c(C(=O)Nc3cc(F)c(F)c(F)c3)c3n2CCC3)CC[C@H](CC(=O)O)CC1 [Compound 25] | > 50 µM | > 50 µM | > 50 µM | > 50 µM | > 50 µM | > 2.42 h | < 8.6 mL/min/kg | < 9.6 µL/min/mg
